Source: the supplement of paper PMC6045584
± gives the standard deviation of the averaged measurements.

How the values were obtained:
[1] = compound: CC(=O)NCC(=O)N1[C@@H]2CC[C@H]1c1ccc(Nc3ncc(C(F)(F)F)c(NC4CCC4)n3)cc12; assay: surviving fraction relative to DMSO-only wells; higher = less growth inhibition; conditions: exposure time: 5 days
Outline: (§1)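 At 250–500 cells per well in 384-well plates, log-phase tumour cell lines were seeded and, 24 hours on, exposed continuously for five days to inhibitors at 0.5, 1, 5, 10, 50, 100, 500 and 1000 nM. Viability readout was CellTiter-Glo luminescence, reported as surviving fraction normalised to the median of DMSO-only wells.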

[2] = compound: Cc1ccc(-c2cc(C(F)(F)F)nn2-c2ccc(S(N)(=O)=O)cc2)cc1 [CELECOXIB]; assay: as above; conditions: exposure time: 5 days
Outline: as §1

Row | Test System | surviving fraction ([1]; 0.5 nM) | surviving fraction ([1]; 1 nM) | surviving fraction ([1]; 5 nM) | surviving fraction ([1]; 10 nM) | surviving fraction ([1]; 50 nM) | surviving fraction ([1]; 100 nM) | surviving fraction ([1]; 500 nM) | surviving fraction ([1]; 1000 nM) | surviving fraction ([2]; 0.5 nM) | surviving fraction ([2]; 1 nM) | surviving fraction ([2]; 5 nM) | surviving fraction ([2]; 10 nM) | surviving fraction ([2]; 50 nM) | surviving fraction ([2]; 100 nM) | surviving fraction ([2]; 500 nM) | surviving fraction ([2]; 1000 nM)
1 | MHM BONE | 0.986 ± 0.016 | 0.989 ± 0.031 | 0.979 ± 0.019 | 0.999 ± 0.011 | 0.986 ± 0.034 | 0.96 ± 0.041 | 0.764 ± 0.02 | 0.629 ± 0.028 | 1.01 ± 0.038 | 1.01 ± 0.027 | 1.04 ± 0.03 | 1.08 ± 0.057 | 1.05 ± 0.041 | 1.05 ± 0.025 | 1.009 ± 0.009 | 1.02 ± 0.028
2 | HSSYII SYNOVIAL | 0.921 ± 0.035 | 0.8998 ± 0.0079 | 0.886 ± 0.044 | 0.851 ± 0.05 | 0.438 ± 0.017 | 0.222 ± 0.015 | 0.177 ± 0.015 | 0.185 ± 0.0066 | 1.04 ± 0.019 | 1.01 ± 0.014 | 0.979 ± 0.07 | 1.08 ± 0.028 | 1.02 ± 0.046 | 1.039 ± 0.0068 | 1.01 ± 0.066 | 1.04 ± 0.036
3 | MDAMB468 BREAST | 0.977 ± 0.023 | 1.04 ± 0.046 | 1.05 ± 0.026 | 0.987 ± 0.041 | 1.03 ± 0.047 | 0.507 ± 0.047 | 0.146 ± 0.01 | 0.151 ± 0.018 | 1.05 ± 0.043 | 1.05 ± 0.097 | 1.16 ± 0.054 | 1.17 ± 0.11 | 1.2 ± 0.12 | 1.19 ± 0.071 | 1.22 ± 0.046 | 1.2 ± 0.098
4 | SG43 HEADNECK | 1.01 ± 0.065 | 1.18 ± 0.26 | 0.8 ± 0.25 | 0.923 ± 0.17 | 0.703 ± 0.22 | 0.682 ± 0.093 | 0.579 ± 0.039 | 0.569 ± 0.069 | 0.96 ± 0.3 | 1.22 ± 0.49 | 0.942 ± 0.31 | 0.929 ± 0.28 | 0.938 ± 0.21 | 1.14 ± 0.051 | 1.04 ± 0.035 | 1.08 ± 0.08
5 | HCC38 BREAST | 1.19 ± 0.12 | 1.19 ± 0.3 | 0.952 ± 0.096 | 1.26 ± 0.31 | 0.747 ± 0.077 | 0.668 ± 0.051 | 0.594 ± 0.15 | 0.455 ± 0.062 | 1.17 ± 0.23 | 1.4 ± 0.23 | 1.33 ± 0.23 | 1.36 ± 0.25 | 1.25 ± 0.1 | 1.17 ± 0.0085 | 1.09 ± 0.095 | 1.15 ± 0.12
6 | SYO1 SYNOVIAL | 0.943 ± 0.061 | 0.955 ± 0.024 | 0.93 ± 0.08 | 0.893 ± 0.078 | 0.388 ± 0.06 | 0.266 ± 0.027 | 0.2212 ± 0.0014 | 0.237 ± 0.013 | 0.952 ± 0.052 | 0.998 ± 0.055 | 0.985 ± 0.065 | 0.9986 ± 0.0091 | 0.974 ± 0.022 | 0.955 ± 0.043 | 0.975 ± 0.07 | 1.04 ± 0.061
7 | SNU475 LIVER | 0.9533 ± 0.0031 | 0.962 ± 0.038 | 0.9607 ± 0.0076 | 0.899 ± 0.051 | 0.902 ± 0.035 | 0.804 ± 0.035 | 0.686 ± 0.079 | 0.529 ± 0.041 | 1.06 ± 0.039 | 1.08 ± 0.054 | 1.02 ± 0.03 | 1.05 ± 0.033 | 1.07 ± 0.026 | 1.02 ± 0.046 | 1.06 ± 0.03 | 1.11 ± 0.026
8 | CAL120 BREAST | 0.923 ± 0.051 | 0.9253 ± 0.0041 | 0.945 ± 0.029 | 0.9333 ± 0.0076 | 0.8605 ± 0.0059 | 0.643 ± 0.025 | 0.489 ± 0.053 | 0.387 ± 0.047 | 0.962 ± 0.045 | 0.979 ± 0.039 | 0.964 ± 0.067 | 0.99 ± 0.049 | 1 ± 0.04 | 1.01 ± 0.032 | 0.995 ± 0.085 | 1 ± 0.011
9 | YAMATO SYNOVIAL | 1.06 ± 0.048 | 1.02 ± 0.049 | 1.1 ± 0.061 | 1.14 ± 0.058 | 0.994 ± 0.005 | 0.738 ± 0.023 | 0.622 ± 0.022 | 0.543 ± 0.058 | 1.3 ± 0.17 | 1.38 ± 0.056 | 1.4 ± 0.12 | 1.47 ± 0.11 | 1.42 ± 0.11 | 1.47 ± 0.14 | 1.39 ± 0.094 | 1.36 ± 0.21
10 | SCC36 HEADNECK | 1.01 ± 0.1 | 1.04 ± 0.15 | 1.13 ± 0.16 | 1.12 ± 0.066 | 0.945 ± 0.12 | 0.731 ± 0.052 | 0.428 ± 0.048 | 0.431 ± 0.051 | 1.05 ± 0.029 | 0.924 ± 0.11 | 1.13 ± 0.057 | 1.09 ± 0.025 | 1.16 ± 0.12 | 1.08 ± 0.044 | 1.13 ± 0.079 | 1.04 ± 0.14
11 | MDAMB157 BREAST | 0.954 ± 0.082 | 0.854 ± 0.042 | 0.858 ± 0.081 | 0.895 ± 0.064 | 0.79 ± 0.11 | 0.498 ± 0.068 | 0.431 ± 0.077 | 0.216 ± 0.041 | 0.92 ± 0.089 | 0.989 ± 0.093 | 0.993 ± 0.048 | 0.967 ± 0.045 | 1 ± 0.16 | 0.991 ± 0.04 | 0.984 ± 0.025 | 0.945 ± 0.07
12 | VCAP PROSTATE | 1.06 ± 0.051 | 1.05 ± 0.086 | 1.08 ± 0.11 | 0.935 ± 0.053 | 0.681 ± 0.075 | 0.603 ± 0.016 | 0.433 ± 0.021 | 0.327 ± 0.038 | 1.07 ± 0.068 | 1.08 ± 0.17 | 1.06 ± 0.067 | 1.14 ± 0.1 | 1.13 ± 0.018 | 1.12 ± 0.072 | 1.07 ± 0.029 | 1.05 ± 0.11
13 | MDAMB361 BREAST | 0.96 ± 0.044 | 0.939 ± 0.041 | 0.88 ± 0.038 | 0.873 ± 0.02 | 0.922 ± 0.11 | 1.1 ± 0.05 | 1.09 ± 0.075 | 0.928 ± 0.093 | 0.857 ± 0.13 | 0.895 ± 0.013 | 0.897 ± 0.12 | 0.896 ± 0.081 | 0.857 ± 0.17 | 0.89 ± 0.21 | 0.909 ± 0.091 | 0.968 ± 0.17
14 | SCC003 HEADNECK | 0.911 ± 0.056 | 0.889 ± 0.096 | 1.05 ± 0.06 | 1.02 ± 0.027 | 0.988 ± 0.043 | 0.636 ± 0.063 | 0.425 ± 0.035 | 0.397 ± 0.076 | 1.07 ± 0.033 | 1.1 ± 0.049 | 1.05 ± 0.034 | 1.06 ± 0.027 | 1.12 ± 0.11 | 1.09 ± 0.049 | 1.13 ± 0.11 | 1.08 ± 0.067
15 | RDES SOFT TISSUE | 1.25 ± 0.15 | 1.26 ± 0.18 | 1.3 ± 0.047 | 1.3 ± 0.079 | 1.07 ± 0.17 | 0.245 ± 0.018 | 0.249 ± 0.025 | 0.195 ± 0.0049 | 1.11 ± 0.11 | 1.16 ± 0.14 | 1.19 ± 0.069 | 1.11 ± 0.077 | 1.16 ± 0.25 | 1.27 ± 0.11 | 1.17 ± 0.14 | 1.15 ± 0.045
16 | SCC90 HEADNECK | 0.769 ± 0.12 | 0.816 ± 0.048 | 0.936 ± 0.035 | 0.991 ± 0.089 | 0.66 ± 0.13 | 0.62 ± 0.084 | 0.665 ± 0.048 | 0.613 ± 0.017 | 0.978 ± 0.063 | 1.09 ± 0.13 | 1.09 ± 0.11 | 1.01 ± 0.077 | 1.13 ± 0.11 | 1.01 ± 0.077 | 0.93 ± 0.048 | 1.01 ± 0.15
17 | SG27 HEADNECK | 1.04 ± 0.03 | 1.05 ± 0.042 | 0.868 ± 0.14 | 1.04 ± 0.079 | 0.948 ± 0.054 | 0.872 ± 0.043 | 0.843 ± 0.061 | 0.919 ± 0.05 | 1.18 ± 0.086 | 1.14 ± 0.069 | 1.14 ± 0.09 | 1.13 ± 0.046 | 1.3 ± 0.084 | 1.17 ± 0.23 | 1.12 ± 0.15 | 1.21 ± 0.081
18 | ASKA SYNOVIAL | 0.973 ± 0.052 | 0.908 ± 0.012 | 0.972 ± 0.085 | 0.912 ± 0.084 | 0.365 ± 0.018 | 0.335 ± 0.023 | 0.34 ± 0.012 | 0.386 ± 0.035 | 1.16 ± 0.098 | 1.15 ± 0.074 | 1.2 ± 0.05 | 1.19 ± 0.048 | 1.19 ± 0.12 | 1.21 ± 0.064 | 1.15 ± 0.073 | 1.12 ± 0.039
19 | HCC1395 BREAST | 0.928 ± 0.15 | 1.05 ± 0.12 | 0.979 ± 0.062 | 1.04 ± 0.0025 | 0.962 ± 0.12 | 0.94 ± 0.13 | 0.991 ± 0.027 | 0.928 ± 0.092 | 1.17 ± 0.084 | 1.2 ± 0.13 | 1.32 ± 0.041 | 1.26 ± 0.053 | 1.27 ± 0.038 | 1.22 ± 0.041 | 1.25 ± 0.053 | 1.21 ± 0.037
20 | CASKI CERVIX | 0.928 ± 0.014 | 0.939 ± 0.042 | 0.968 ± 0.072 | 0.946 ± 0.067 | 0.771 ± 0.049 | 0.214 ± 0.018 | 0.199 ± 0.015 | 0.133 ± 0.0061 | 0.944 ± 0.024 | 0.881 ± 0.056 | 0.952 ± 0.029 | 0.93 ± 0.055 | 1.01 ± 0.027 | 1 ± 0.051 | 0.933 ± 0.034 | 0.972 ± 0.11
21 | CCK81 LARGE INTESTINE | – | – | – | – | – | – | – | – | 0.841 ± 0.1 | 0.867 ± 0.052 | 0.744 ± 0.14 | 0.819 ± 0.059 | 0.774 ± 0.094 | 0.732 ± 0.099 | 0.735 ± 0.089 | 0.813 ± 0.077
